Test results taken from paper PMC12040169 (PLOS Biology, 2025).

Assay: in vitro
Conditions: human, hela cells, % viability

Structure (SMILES) | viability at 28.5 h, 10 µM
CCN(C#N)c1nc(NC)nc(OC)n1 [CBK265697] | 98.1%
COc1ccc(NC(=O)C(C)Sc2nc(N)cc(O)n2)cc1 (stereo not shown) [CBK265699] | 106%
O=C(O)/C(=C\c1ccc(Cl)cc1)NC(=O)c1ccccc1I [CBK265701] | 90.1%
COc1ccccc1CNC(=O)c1cccc(C)c1[N+](=O)[O-] [CBK265703] | 87.8%
O=C(c1ccncc1)N(c1ccc2oc3c(c2c1)CCCC3)S(=O)(=O)c1cccc([N+](=O)[O-])c1 [CBK265705] | 106%
Cc1nc(CSc2nc3sc4c(c3c(=O)n2-c2ccccc2)CCCCC4)cs1 [CBK265706] | 110%
CC(C)C(C(=O)Nc1ccc(S(=O)(=O)Nc2nccs2)cc1)N1C(=O)c2ccccc2C1=O (stereo not shown) [CBK265707] | 107%
NS(=O)(=O)c1ccc(CCNC(=O)/C=C/c2ccccc2[N+](=O)[O-])cc1 [CBK265709] | 101%
Cc1cccc(-n2ncc3c(NCCCN4CCOCC4)ncnc32)c1 [CBK265710] | 91.2%
CS(=O)(=O)CCC(C(=O)O)N1C(=O)c2ccc(C(=O)O)cc2C1=O (stereo not shown) [CBK265719] | 94.5%
O=C(O)c1ccc(NC(=O)c2cc(S(=O)(=O)N3CCCCC3)cs2)cc1 [CBK265722] | 101%
CN(C)S(=O)(=O)c1ccc(Cl)c(C(=O)Nc2cccc(O)c2)c1 [CBK265723] | 113%
CN(CC(=O)O)C(=O)c1ccc(S(=O)(=O)N2CCCC2)cc1 [CBK265724] | 91.8%
CN(C)S(=O)(=O)c1ccc(Cl)c(C(=O)Nc2cccc(C(=O)O)c2)c1 [CBK265727] | 90.9%
CN(c1ccc(C(=O)Nc2cccc(C(=O)O)c2)cc1)S(=O)(=O)c1ccccc1 [CBK265729] | 95.7%
CCOc1cc(CNC2C3CC4CC(C3)CC2C4)cc(Cl)c1OCC(N)=O (stereo not shown) [CBK265734C] | 103%
Cc1cccc(NC(=O)CSc2ncnc3sc4c(c23)CCC(C)C4)c1 (stereo not shown) [CBK265738] | 102%
O=C(O)c1cccc(NC(=S)NC(=O)c2cccnc2)c1 [CBK265739] | 94.5%
CCCCc1ccc(NC(=S)NN2CCN(C)CC2)cc1 [CBK265741] | 97.1%
COC(=O)c1c(NC(=O)C(Cc2ccccc2)N2C(=O)c3ccccc3C2=O)sc2c1CCC2 (stereo not shown) [CBK265744] | 96.1%
CN1CCN(C(=O)CN(Cc2ccccc2)S(C)(=O)=O)CC1 [CBK265745] | 97.6%
CCN(CC)CCCNc1oc(-c2ccc(Cl)cc2)nc1C#N [CBK265746] | 126%

Structure (SMILES) | viability at 28.5 h, 10 µM
O=C(O)CCCn1c(=O)c2cc3c(=O)n(CCCC(=O)O)c(=O)c3cc2c1=O [CBK265748] | 93.1%
O=C(COc1ccc2ccccc2c1)Nc1ccc(CN2CCOCC2)cc1 [CBK265754] | 121%
Cc1nn(Cc2cccc(C(=O)NCc3ccccn3)c2)c(C)c1Cl [CBK265755] | 97.7%
Cc1c(CN(C)C(=O)c2ccc(COc3ccc(Cl)cc3)cc2)cnn1C [CBK265756] | 98.9%
Cc1ccccc1CN(CC(=O)NC1CC1)S(=O)(=O)c1ccc(Cl)cc1 [CBK265757] | 98.3%
C/C(=C(/C(=O)N(N)c1nc2ccccc2s1)C(=O)C(F)(F)F)N1CCC(C(N)=O)CC1 [CBK265758] | 87.7%
Cc1ccc(N(Cc2ccccc2OC(=O)c2cccnc2)C2=NS(=O)(=O)c3ccccc32)cc1 [CBK265760] | 88.4%
O=c1c2ccccc2c(-c2ccc(Cl)cc2)nn1-c1cc(N2CCNCC2)ccc1[N+](=O)[O-] [CBK265763] | 98.7%
O=C(Nc1ccc(S(=O)(=O)Nc2ccc(Cl)cc2)cc1)c1ccc(Cn2cc(Br)cn2)o1 [CBK265764] | 108%
CN1CCN(C(=O)CNS(=O)(=O)c2ccccc2)CC1 [CBK265767] | 92.6%
COc1ccc(-c2nc(C#N)c(NCCN3CCOCC3)o2)cc1 [CBK265769] | 108%
O=C(O)CCC(=O)Nc1ccccc1NC(=O)c1ccc(C(F)(F)F)cc1 [CBK265770] | 102%
CN1CCN(CC(=O)Nc2ccc([N+](=O)[O-])cc2C(=O)c2ccccc2)CC1 [CBK265772] | 104%
NC(=O)C1(N2CCCCC2)CCN(CC(=O)Nc2ccc(Oc3ccccc3)cc2)CC1 [CBK265774] | 107%
NC(=O)c1c(NC(=O)c2ccc(COc3cc(Cl)ccc3Cl)o2)sc2c1CCCC2 [CBK265775] | 85.4%
CCOc1cc(C2CC(=O)NC(SCC(=O)Nc3cccc(C(F)(F)F)c3)=C2C#N)ccc1O (stereo not shown) [CBK265778] | 104%
Cn1nc(-c2ccc(N3CCCCC3)c(NC(=O)COc3ccccc3)c2)c2ccccc2c1=O [CBK265780] | 97.3%
CCn1c(SCC(=O)N2CCN(c3ccccc3)CC2)nnc1-c1ccc(N)cc1 [CBK265786] | 103%
O=C1CNC(=O)N1CC(O)Cn1c2ccc(Cl)cc2c2cc(Cl)ccc21 (stereo not shown) [CBK265792] | 90.1%
N#CC1=C(SCC(=O)Nc2cccc3ccccc23)NC(=O)CC1c1ccco1 (stereo not shown) [CBK265793] | 101%
CC(Sc1nc(-c2ccccc2)nc2ccccc12)C(=O)Nc1ccccc1C(F)(F)F (stereo not shown) [CBK265795] | 103%
O=S1(=O)CC(NCc2ccccc2)C(Nc2ccccc2)C1 (stereo not shown) [CBK265797] | 91.7%

Structure (SMILES) | viability at 28.5 h, 10 µM
CCOc1nc2c(c(C(F)(F)F)n1)CC(C)C/C2=C\c1ccccc1 (stereo not shown) [CBK265800] | 94.8%
NS(=O)(=O)c1ccc(CNC(=S)NC2CCCC2)cc1 [CBK265802] | 97.8%
COc1ccc(CCNc2ncnc3c2cnn3-c2ccc(Cl)cc2)cc1OC [CBK265804] | 105%
CS(=O)(=O)N(CC(=O)O)Cc1ccccc1 [CBK265805] | 90.1%
CC(C)(C)NC(=O)CNS(=O)(=O)c1ccccc1 [CBK265807] | 85.5%
CCn1cc(C(=O)O)c(=O)c2cc(F)c(N3CCN(C(=S)Nc4cccc5ccccc45)CC3)cc21 [CBK265809] | 97.4%
O=C(O)c1cccc(-n2c(S)nnc2-c2ccc3ccccc3n2)c1 [CBK265810] | 103%
Cc1nn(Cc2cccc(C(=O)Nc3ccc(S(=O)(=O)N4CCCCC4)cc3)c2)c(C)c1Cl [CBK265815] | 81.9%
Cc1ccccc1OCc1nnc(SCC(=O)NC2CCCCC2)n1C [CBK265817] | 82.5%
Sc1nnc(-c2ccncc2)n1CCc1ccccc1 [CBK265819] | 108%
COc1ccc([N+](=O)[O-])cc1CSc1nnc(COc2ccccc2C)n1C [CBK265820] | 93%
CC(Sc1nnc2[nH]c3ccccc3n12)C(=O)O (stereo not shown) [CBK265822] | 99.7%
CCn1cc(C(=O)O)c(=O)c2cc(F)c(N3CCN(C(=S)Nc4cc(OC)ccc4OC)CC3)cc21 [CBK265831] | 85.7%
Cc1ccc(S(=O)(=O)NC2c3cccc4cccc(c34)C2Sc2nnc(N)s2)cc1 (stereo not shown) [CBK265835] | 107%
O=C(CSc1ccccc1)Nc1cc(Cl)ccc1O [CBK265837] | 109%
O=C1CCCN1CCCNc1ncnc2c1cnn2-c1ccc(Cl)cc1 [CBK265838] | 97.1%
CCN(Cc1ccccc1)Cc1c(O)ccc2c(=O)c(-c3ccccc3OC)c(C(F)(F)F)oc12 [CBK265839] | 90%
Cc1ccc(S(=O)(=O)NC2c3cccc4cccc(c34)C2Sc2ccccn2)cc1 (stereo not shown) [CBK265840] | 91.6%
Cc1cc(C)c(S(=O)(=O)NCCN2CCN(S(=O)(=O)c3c(C)cc(C)cc3C)CC2)c(C)c1 [CBK265842] | 96%
NC(=O)c1cc(-c2ccccc2)sc1NC(=O)C(Cc1ccccc1)N1C(=O)c2ccccc2C1=O (stereo not shown) [CBK265843] | 104%
c1ccc(-c2noc(CN3CCN(C(c4ccccc4)c4ccccc4)CC3)n2)cc1 [CBK265844] | 101%
CS(=O)(=O)NC1c2cccc3cccc(c23)C1N1CCOCC1 (stereo not shown) [CBK265845] | 102%

Structure (SMILES) | viability at 28.5 h, 10 µM
Cc1ccccc1OCc1nnc(SCc2c(Cl)cccc2[N+](=O)[O-])n1C [CBK265846] | 92.4%
O=C(Nc1ccc(S(=O)(=O)N2CCCC2)cc1)c1ccc(COc2ccc3c(c2)CCC3)o1 [CBK265847] | 89.1%
COc1ccc(-n2ncc3c(N4CCN(C)CC4)ncnc32)cc1 [CBK265848] | 89%
Cc1ccccc1OCc1nnc(SCC(=O)N2CCOCC2)n1C [CBK265850] | 96.1%
CN(C)C1c2cccc3cccc(c23)C1NS(C)(=O)=O (stereo not shown) [CBK265851] | 110%
NS(=O)(=O)c1ccc(CCNC2=CC(=O)CC(c3ccco3)C2)cc1 (stereo not shown) [CBK265852] | 97%
Cc1ccnc(NS(=O)(=O)c2ccc(NC(=O)CSc3ccc(Cl)cc3)cc2)n1 [CBK265854] | 98.9%
Cc1nn(Cc2ccc(C(=O)Nc3c(C)nn(Cc4ccc(Cl)c(Cl)c4)c3C)o2)c(C)c1Br [CBK265855] | 83.5%
Cc1ccc(N(Cc2ccco2)C(=O)c2cccc(S(=O)(=O)N3CCOCC3)c2)cc1 [CBK265857] | 96.4%
N#CCCSCc1ccc(C(=O)O)o1 [CBK265858] | 115%
CCn1c(SCC(=O)Nc2ccccc2OC)nnc1-c1ccc(N)cc1 [CBK265859] | 111%
CCOc1ccccc1NC(=O)CNS(=O)(=O)c1ccccc1 [CBK265860] | 86.9%
NC(=O)C1(N2CCCCC2)CCN(C(=S)Nc2ccc(Oc3ccccc3)cc2)CC1 [CBK265862] | 84.7%
COc1ccc(NC(=O)CCN2C(=O)c3ccccc3S2(=O)=O)cc1 [CBK265863] | 87.1%
O=C(O)CCC(=O)NCC1OCCc2ccccc21 (stereo not shown) [CBK265865] | 89%
O=C(c1ccccc1Cl)N1CCN(c2ccc([N+](=O)[O-])c(NCc3cccnc3)c2)CC1 [CBK265866] | 108%
O=C(Cc1ccc(Cl)cc1)Nc1ccc(Oc2ccc3c(c2)C(=O)NC3=O)cc1 [CBK265869] | 87.8%
Cc1ccc(S(=O)(=O)NC2c3cccc4cccc(c34)C2Sc2nncn2N)cc1 (stereo not shown) [CBK265873] | 112%
COc1cc(CNn2cnnc2S)ccc1OCC(N)=O [CBK265877] | 90%
